≈ marks a conversion by molar mass, not a printed value.

Data set [1] can be described thus: physchem. The conditions noted are these: for solubility at 24 h: 20 °C, aqueous with cosolvent or surfactant or cyclodextrin, thermodynamic from solid. Here is the method:
The solubility was determined by using a shake-flask method. The drug was added in excess to each solution prepared in duplicate. The vials were placed on a mechanical shaker for 24 hours at 20-25° C. After shaking, solution was removed and filtered through a 0.45 μm PTFE syringe filter and analyzed by UV/Visible spectrophotometry.

Data set [2] in a line: Specific Surface Area (SSA) determination by BET Sorptometry. The format is physicochemical. Here is the method: As used herein, the “specific surface area” is the total surface area of the niraparib particle per unit of niraparib mass as measured by the Brunauer-Emmett-Teller (“BET”) isotherm (i.e.: the BET SSA). As will be understood by those of skill in the art, the SSA is determined on a per gram basis and takes into account both agglomerated and non-agglomerated niraparib particles in the composition. The BET specific surface area test procedure is a compendial method included in both the United States Pharmacopeia and the European Pharmacopeia. The niraparib particles have a specific surface area (SSA) of at least 5 m^2/g. In various further embodiments, the niraparib particles have a SSA of at least 6 m^2/g, 7 m^2/g, 8 m^2/g, 9 m^2/g 10 m^2/g, 11 m^2/g, 12 m^2/g, 13 m^2/g, 14 m^2/g, 15 m^2/g, 16 m^2/g, 17 m^2/g, 18 m^2/g, 19 m^2/g, 20 m^2/g, 21 m^2/g, 22 m^2/g, 23 m^2/g, or 24 m^2/g.
Specific Surface Area (SSA) determination by BET Sorptometry
Surface area analyses were conducted on a Quantachrome NOVAtouch™ LX2 BET Sorptometer. Surface area results can be found in Table 1.

Data set [3] is described as follows: Bulk density analysis by modified USP <616> Bulk Density of Powders Method I (bulk and tapped density). The format is physicochemical. The source says:
As used herein, the bulk density (not tapped) of a particle is the ratio of the mass to the volume (including the interparticulate void volume) of an untapped powder sample.
As used herein, the tapped density of a particle is obtained by mechanically tapping a graduated cylinder containing the sample until little further volume change is observed.
Bulk density analysis by modified USP <616> Bulk Density of Powders Method I

The nature of data set [4]: Particle Size Distribution (PSD) by Laser Diffraction (Malvern Mastersizer 3000). The conditions noted are these: dispersed in ethyl acetate. The format is physicochemical. The protocol: Particle Size Distribution (PSD) by Laser Diffraction
Particle size analyses were conducted on a Malvern Mastersizer™ 3000 using the Hydro MV™ dispersion unit. A non-validated general PSD method/dispersant method was used to analyze the niraparib samples. The sample preparation procedure performed was as follows: Weigh 10 to 20 mg of niraparib into a 30-mL vial, add 20 mL of ethyl acetate. Disperse the sample by vortexing then sonicating the suspension in an ultrasonic bath for 1 minute. Then transfer the sample suspension to the Malvern Hydro MV™ dispersion unit to obtain obscuration between 5 and 15%.
PSD results from a Dv10 of 0.601 μ to a Dv90 of 12.9μ were obtained. […] Particle size distributions can be viewed in Table 1.

In the case of `NC(=O)c1cccc2cn(-c3ccc([C@@H]4CCCNC4)cc3)nc12` [Niraparib, (S)-2-(4-(piperidin-3-yl)phenyl)-2H-indazole-7-carboxamide], the solubility at 24 h in data set [1] (10% ethanol in water) is 56.2 µg/mL (≈ 175 µM); in data set [1] (10% methanol in water), 76.4 µg/mL (≈ 238 µM); in data set [1] (25% ethanol in water), 332 µg/mL (≈ 1040 µM); in data set [1] (25% methanol in water), 204 µg/mL (≈ 637 µM). Also, the “solubility versus organic solvent concentration” value in data set [1] (methanol or ethanol, 10% and 25%) is “concentration dependent solubility”. Moreover, in data set [2] (BET sorptometer), the “Surface Area” value came out at 0.70 m^2/gm. In data set [2] (material used in dissolution testing), the “specific surface area measurement” value was 0.70 m^2/g. Moreover, the “Bulk Density” value in data set [3] (not tapped) came out at 0.617 gm/cm^3. The “Tapped Density” value in data set [3] (tapped) is 0.741 gm/cm^3. For the same compound, the Dv-10 in data set [4] was 33.2 μ. In addition, the Dv-50 in data set [4] stood at 103 μ. In data set [4], this compound had a Dv-90 of 267 μ.

Values taken from patent US11738014B2, “Niraparib particles and uses thereof” (CRITITECH, INC., priority 2021, dated 2023).
